What is called EC50 is the concentration that produces a half-maximal response.

From patent US20230286973A1, “PROTEIN SECRETION INHIBITORS” (KEZAR LIFE SCIENCES, priority 2020, published 2023) come the findings set out here.

Data set [1] concerns PD1-ss+10aa/Gaussia Luciferase. Kind of data set: Dox-Induced PD1-ss-Gluc Assay. It counts as cell-based. The settings on record: 24 hr Dox induction; 293FRT/TO cells; mean; read-out: 24 hr Dox Inducible PD1ssGluc 293FRT/TO: Mean IC50. The method, boiled down: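 Flp-In 293 T-REx, stable line; Tet-regulated PD1-ss+10aa fused to Gaussia luciferase; plated day prior; cpd + doxycycline in DMSO/media; 37 °C, 5% CO2.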

For data set [2], the system named is TNFα-FL/Gaussia Luciferase. Kind of data set: Dox Induced TNFα-FL-Gluc Assay. It counts as cell-based. The note with it: for IC50: 24 hr Dox induction, 293FRT/TO cells, mean, read-out: 24 hr Dox Inducible TNFaFLGluc 293FRT/TO: Mean IC50; for 24 hr Dox Inducible TNFaFLGluc 293FRT/TO: TNF/PD1: ratio of TNFaFLGluc IC50 to PD1ssGluc IC50, '<=>' given where both are I.A. The method, boiled down: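 Cell line: stable Flp-In 293 T-REx, TNFα-FL(1-233)-Gaussia luciferase fusion, T-REx-inducible. Plated day -1; compounds in DMSO/media + doxycycline, 37 °C, 5% CO2. Undefined stereocentres = mixture tested.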

The test system of data set [3] is HER3-ss+4aa/Gaussia Luciferase. The experiment in a line: Dox-Induced Her3-ss-Gluc Assay. It counts as cell-based. The settings on record: 24 hr Dox induction; 293FRT/TO cells; mean; read-out: 24 hr Dox Inducible Her3(ss + 4)Gluc 293FRT/TO: Mean IC50. Put shortly: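 Flp-In 293 T-REx cells, stable HER3-ss+4aa/Gaussia luciferase insert, hygromycin/blasticidin selected; plated day before; compound in DMSO/media + doxycycline; 37° C., 5% CO2.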

Data set [4] deals with IL-2-FL/Gaussia Luciferase. Kind of data set: Dox Induced IL2-FL-Gluc Assay. It counts as cell-based. The settings on record: for IC50: 24 hr Dox induction, 293FRT/TO cells, mean, read-out: 24 hr Dox Inducible IL2FLGluc 293FRT/TO: Mean IC50; for 24 hr Dox Inducible IL2FLGluc 293FRT/TO: IL2/PD1: ratio of IL2FLGluc IC50 to PD1ssGluc IC50, '<=>' given where both are I.A. Put shortly: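 Stable Flp-In 293 T-REx line, Tet-regulated IL-2 (aa 1-153)–Gaussia luciferase fusion; hygromycin/blasticidin selected. Plated day -1; compound + doxycycline added next day; 37° C, 5% CO2.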

Data set [5] concerns multiple myeloma cell line NCI-H929. The experiment in a line: H929 Cell Viability Assay. It counts as cell-based, human. The note with it: Homo sapiens, NCI-H929, 48 h, NCI-H929 cells, Celltiter-Glo. The method, boiled down:
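Cells in RPMI 1640/10% FBS; compound dilutions in DMSO/media; 48 h, 37° C, 5% CO2; CellTiter-Glo luciferase readout for viability.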
In general terms: ATP-based viability assays read luminescence as a measure of living cells.

The subject of data set [6] is multiple myeloma cell line U266B1. The experiment in a line: U266 Cell Viability Assay. It counts as cell-based, human. The settings on record: Homo sapiens, U-266, 48 h, U266B1 cells, Celltiter-Glo. Put shortly: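 Luminescent ATP read-out (CellTiter-Glo) after 48 h compound exposure at 37° C., 5% CO2; cells maintained in RPMI 1640/10% FBS/2 mM glutamine/pen-strep, compounds diluted in DMSO/media.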

Data set [7] is described as follows: Liver Microsome Stability Assay (rat). The settings on record: rat liver microsomes, with NADPH, 1.0 uM compound. A general note: Liver microsomes are vesicles of endoplasmic reticulum, rich in cytochrome P450 enzymes.
Experimental: (§1) Stability of a compound was assessed in the presence of liver microsomes from various sources—mouse, rat, monkey and human liver microsomes. 1.0 uM compound, 0.4% DMSO in 0.1 M Potassium Phosphate with 1.0 mg/mL liver microsomes, were incubated at 37° C. with or without 1 mM NADPH. The samples were quenched at 0, and 30 minutes.
Data set [8] can be described thus: Liver Microsome Stability Assay (mouse). The settings on record: mouse liver microsomes, with NADPH, 1.0 uM compound.
Experimental: as §1
Data set [9] is described as follows: Liver Microsome Stability Assay (human). The note with it: human liver microsomes, with NADPH, 1.0 uM compound.
Experimental: as §1
Data set [10] is described as follows: Liver Microsome Stability Assay (monkey). The settings on record: monkey liver microsomes, with NADPH, 1.0 uM compound.
Experimental: as §1

Consider `O=C(Nc1nc([C@H]2CCCN2c2ccccc2)cs1)c1cccn1CCCc1cccnc1` [Compound E10, (R)-N-(4-(1-phenylpyrrolidin-2-yl)thiazol-2-yl)-1-(3-(pyridin-3-yl)propyl)-1H-pyrrole-2-carboxamide], for which the IC50 in [1] is 5.76 µM; in data set [2], > 25 µM; in data set [3] it was 4.93 µM; in data set [4], 5.41 µM. Further, in data set [2], the “24 hr Dox Inducible TNFaFLGluc 293FRT/TO: TNF/PD1” value was >4.34. For the same compound, in data set [4], the “24 hr Dox Inducible IL2FLGluc 293FRT/TO: IL2/PD1” value came to 0.94. The EC50 in [5] and in data set [6] was > 25 µM in each case. For the same compound, the “Liver Microsome Stability (Multiple Species): Rat - % Remaining after 30 min w/NADPH” value in [7] is listed as 0.39%. In [8], the “Liver Microsome Stability (Multiple Species): Mouse - % Remaining after 30 min w/NADPH” value is on record as 0.46%. Moreover, the “Liver Microsome Stability (Multiple Species): Human - % Remaining after 30 min w/NADPH” value in data set [9] is 0.37%. Also, the “Liver Microsome Stability (Multiple Species): Monkey - % Remaining after 30 min w/NADPH” value in [10] is on record as 0.06%.
Consider `O=C(Nc1nc(Cc2ccccn2)cs1)c1cccn1Cc1ccncc1` [Compound E11, N-(4-(pyridin-2-ylmethyl)thiazol-2-yl)-1-(pyridin-4-ylmethyl)-1H-pyrrole-2-carboxamide], for which the IC50 in data set [1] was 2.18 µM; in data set [2], > 25 µM; in data set [3] it was 8.17 µM; in data set [4], 8.24 µM. Besides, the “24 hr Dox Inducible TNFaFLGluc 293FRT/TO: TNF/PD1” value in data set [2] was >11.4. Also, the “24 hr Dox Inducible IL2FLGluc 293FRT/TO: IL2/PD1” value in [4] is listed as 3.8. Besides, the 50% effective concentration (EC50) in data set [5] and in data set [6] was > 25 µM in each case. In addition, in [7], the “Liver Microsome Stability (Multiple Species): Rat - % Remaining after 30 min w/NADPH” value came out at 2.06%. Further, the “Liver Microsome Stability (Multiple Species): Mouse - % Remaining after 30 min w/NADPH” value in data set [8] was found to be 0.36%. In addition, the “Liver Microsome Stability (Multiple Species): Human - % Remaining after 30 min w/NADPH” value in data set [9] was 0.97%. Moreover, the “Liver Microsome Stability (Multiple Species): Monkey - % Remaining after 30 min w/NADPH” value in data set [10] came to 1.33%.
For `O=C(Nc1nc(CCc2coc(-c3ccccc3)n2)cs1)c1cccn1Cc1ccncc1` [Compound E12, N-(4-(2-(2-phenyloxazol-4-yl)ethyl)thiazol-2-yl)-1-(pyridin-4-ylmethyl)-1H-pyrrole-2-carboxamide], the IC50 in data set [1] stood at 0.124 µM; in [2], 7.89 µM; in [3] it was 0.213 µM; in data set [4] it was 0.432 µM. Besides, in data set [2], the “24 hr Dox Inducible TNFaFLGluc 293FRT/TO: TNF/PD1” value is listed as 63.4. The “24 hr Dox Inducible IL2FLGluc 293FRT/TO: IL2/PD1” value in data set [4] is listed as 3.5. Besides, the EC50 in data set [5] and in [6] was > 25 µM in each case. The “Liver Microsome Stability (Multiple Species): Rat - % Remaining after 30 min w/NADPH” value in [7] is 0.83%. The “Liver Microsome Stability (Multiple Species): Mouse - % Remaining after 30 min w/NADPH” value in [8] is given as 0.23%. For the same compound, the “Liver Microsome Stability (Multiple Species): Human - % Remaining after 30 min w/NADPH” value in data set [9] worked out at 0.45%. In addition, the “Liver Microsome Stability (Multiple Species): Monkey - % Remaining after 30 min w/NADPH” value in data set [10] was determined as 0.19%.
For the compound `CC(c1ccncc1)n1cccc1C(=O)Nc1nc([C@H]2CCCN2c2ccccc2)cs1` (stereo partly drawn) [Compound E13, N-(4-((R)-1-phenylpyrrolidin-2-yl)thiazol-2-yl)-1-(1-(pyridin-4-yl)ethyl)-1H-pyrrole-2-carboxamide], the IC50 in [1] turned out to be 0.0533 µM; in data set [2] it was 0.832 µM; in data set [3], 0.114 µM; in data set [4] it was 0.184 µM. For the same compound, the “24 hr Dox Inducible TNFaFLGluc 293FRT/TO: TNF/PD1” value in data set [2] was determined as 15.6. Also, in data set [4], the “24 hr Dox Inducible IL2FLGluc 293FRT/TO: IL2/PD1” value was determined as 3.4. Besides, the EC50 was 5.91 µM in data set [5] and > 25 µM in [6]. The “Liver Microsome Stability (Multiple Species): Rat - % Remaining after 30 min w/NADPH” value in data set [7] worked out at 10.1%. The “Liver Microsome Stability (Multiple Species): Mouse - % Remaining after 30 min w/NADPH” value in [8] turned out to be 1.95%. The “Liver Microsome Stability (Multiple Species): Human - % Remaining after 30 min w/NADPH” value in data set [9] is 5.08%. The “Liver Microsome Stability (Multiple Species): Monkey - % Remaining after 30 min w/NADPH” value in data set [10] is 0.67%.
Take `Cc1ccc(S(=O)(=O)N2CCC[C@@H]2c2csc(NC(=O)c3cccn3Cc3ccncc3)n2)cc1` [Compound E14, (R)-1-(pyridin-4-ylmethyl)-N-(4-(1-tosylpyrrolidin-2-yl)thiazol-2-yl)-1H-pyrrole-2-carboxamide]: the IC50 in data set [1] is 4.24 µM; in data set [2] it was > 25 µM; in data set [3], 20.7 µM; in data set [4] it was 6.62 µM. The “24 hr Dox Inducible TNFaFLGluc 293FRT/TO: TNF/PD1” value in data set [2] is recorded as >5.90. The “24 hr Dox Inducible IL2FLGluc 293FRT/TO: IL2/PD1” value in data set [4] is recorded as 1.6. Besides, the EC50 in data set [5] and in data set [6] was > 25 µM throughout. The “Liver Microsome Stability (Multiple Species): Rat - % Remaining after 30 min w/NADPH” value in [7] came out at 0.11%. For the same compound, in [8], the “Liver Microsome Stability (Multiple Species): Mouse - % Remaining after 30 min w/NADPH” value worked out at 0.1%. The “Liver Microsome Stability (Multiple Species): Human - % Remaining after 30 min w/NADPH” value in data set [9] is 0.2%. Besides, the “Liver Microsome Stability (Multiple Species): Monkey - % Remaining after 30 min w/NADPH” value in data set [10] is on record as 0.11%.
As to `CC(=O)N(C)C/C=C/c1csc(NC(=O)c2cccn2Cc2ccncc2)n1` [Compound E15, (E)-N-(4-(3-(N-methylacetamido)prop-1-en-1-yl)thiazol-2-yl)-1-(pyridin-4-ylmethyl)-1H-pyrrole-2-carboxamide], the IC50 in data set [1], in data set [2], in data set [3] and in data set [4] was > 25 µM each time. In addition, the “24 hr Dox Inducible IL2FLGluc 293FRT/TO: IL2/PD1” value in [4] came to 1. Besides, the concentration for a half-maximal effect (EC50) in data set [5] and in [6] was > 25 µM in each case. The “Liver Microsome Stability (Multiple Species): Rat - % Remaining after 30 min w/NADPH” value in data set [7] is 0.53%. For the same compound, the “Liver Microsome Stability (Multiple Species): Mouse - % Remaining after 30 min w/NADPH” value in data set [8] is 0.54%. Also, the “Liver Microsome Stability (Multiple Species): Human - % Remaining after 30 min w/NADPH” value in data set [9] stood at 0.91%. Moreover, in data set [10], the “Liver Microsome Stability (Multiple Species): Monkey - % Remaining after 30 min w/NADPH” value turned out to be 0.11%.
For the compound `O=C(Nc1nc(/C=C/[C@H]2CCCCN2)cs1)c1cccn1Cc1ccncc1` [Compound E16, (R,E)-N-(4-(2-(piperidin-2-yl)vinyl)thiazol-2-yl)-1-(pyridin-4-ylmethyl)-1H-pyrrole-2-carboxamide], the IC50 in [1], in data set [2], in [3] and in data set [4] was > 25 µM each time. The “24 hr Dox Inducible IL2FLGluc 293FRT/TO: IL2/PD1” value in data set [4] stood at 1. In addition, the EC50 in data set [5] and in [6] was > 25 µM each time. The “Liver Microsome Stability (Multiple Species): Rat - % Remaining after 30 min w/NADPH” value in [7] turned out to be 51.2%. Further, the “Liver Microsome Stability (Multiple Species): Mouse - % Remaining after 30 min w/NADPH” value in data set [8] is 37%. The “Liver Microsome Stability (Multiple Species): Human - % Remaining after 30 min w/NADPH” value in [9] was 1.56%. For the same compound, in [10], the “Liver Microsome Stability (Multiple Species): Monkey - % Remaining after 30 min w/NADPH” value worked out at 0.72%.
With `O=C(Nc1nc([C@H]2CCCN2)cs1)c1cccn1Cc1ccncc1` [Compound E17, (R)-1-(pyridin-4-ylmethyl)-N-(4-(pyrrolidin-2-yl)thiazol-2-yl)-1H-pyrrole-2-carboxamide], the IC50 in data set [1], in data set [2], in [3] and in data set [4] was > 25 µM in each case. In data set [4], the “24 hr Dox Inducible IL2FLGluc 293FRT/TO: IL2/PD1” value turned out to be 1. The EC50 in data set [5] and in data set [6] was > 25 µM each time. Also, in [7], the “Liver Microsome Stability (Multiple Species): Rat - % Remaining after 30 min w/NADPH” value was determined as 27.8%. In addition, the “Liver Microsome Stability (Multiple Species): Mouse - % Remaining after 30 min w/NADPH” value in data set [8] is 35.8%. In [9], the “Liver Microsome Stability (Multiple Species): Human - % Remaining after 30 min w/NADPH” value is recorded as 35.6%. In addition, the “Liver Microsome Stability (Multiple Species): Monkey - % Remaining after 30 min w/NADPH” value in [10] was found to be 18.1%.
